Several values for one entry are separate records, joined by “and”; a condition that tells them apart may be missing. Identical values can stand only once.
What was measured:
MDA-MB-231 [1] = experiment: normalised viability (% of control), CellTiter-Blue; higher = more viable cells (about 100 = DMSO control); details: incubation time: 72 h
Summary of the method: (§1)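 Compound dissolved in 5 µl medium was pre-loaded into 384-well plates, and breast cancer cell lines in 20 µl suspension were seeded on top and incubated 72 h. After adding 2.5 µl CellTiter-Blue reagent for 2 h at 37 °C, fluorescence was read at 560/590 nm. Plates were normalised to vehicle (100) and a positive kill control (0), with Z'-factor quality control. Each value is normalised viability at a single listed concentration from the series.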

BT-549 [2] = experiment: as above; details: incubation time: 72 h
Summary of the method: as §1

CAL-148 [3] = experiment: as above; details: incubation time: 72 h
Summary of the method: as §1

MDA-MB-468 [4] = experiment: as above; details: incubation time: 72 h
Summary of the method: as §1

HCC1143 [5] = experiment: as above; details: incubation time: 72 h
Summary of the method: as §1

Hs578T [6] = experiment: as above; details: incubation time: 72 h
Summary of the method: as §1

DU-4475 [7] = experiment: as above; details: incubation time: 72 h
Summary of the method: as §1

HCC1599 [8] = experiment: as above; details: incubation time: 72 h
Summary of the method: as §1

CAL-51 [9] = experiment: as above; details: incubation time: 72 h
Summary of the method: as §1

MDA-MB-453 = experiment: normalised viability (% of control), CellTiter-Blue; higher = more viable cells (about 100 = DMSO control); details: incubation time: 72 h
Protocol: (§2)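 DSRT, CellTiter-Blue viability, 72 h incubation. Signal is normalised to DMSO and benzethonium chloride controls. Value is the normalised response at dose 3.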

BT-549 [10] = experiment: as above; details: incubation time: 72 h; remark: listed apart in the source
Protocol: as §2

SK-BR-3 = experiment: as above; details: incubation time: 72 h
Protocol: as §2

HDQ-P1 = experiment: as above; details: incubation time: 72 h
Protocol: as §2

BT-474 = experiment: as above; details: incubation time: 72 h
Protocol: as §2

MFM-223 = experiment: as above; details: incubation time: 72 h
Protocol: as §2

CAL-85-1 = experiment: as above; details: incubation time: 72 h
Protocol: as §2

CAL-148 [11] = experiment: as above; details: incubation time: 72 h; remark: listed apart in the source
Protocol: as §2

MDA-MB-468 [12] = experiment: as above; details: incubation time: 72 h; remark: listed apart in the source
Protocol: as §2

HCC1937 [13] = experiment: as above; details: incubation time: 72 h
Protocol: as §2

HCC1143 [14] = experiment: as above; details: incubation time: 72 h; remark: listed apart in the source
Protocol: as §2

DU-4475 [15] = experiment: as above; details: incubation time: 72 h; remark: listed apart in the source
Protocol: as §2

HCC1599 [16] = experiment: as above; details: incubation time: 72 h; remark: listed apart in the source
Protocol: as §2

MDA-MB-436 = experiment: as above; details: incubation time: 72 h
Protocol: as §2

CAL-51 [17] = experiment: as above; details: incubation time: 72 h; remark: listed apart in the source
Protocol: as §2

CAL-120 = experiment: as above; details: incubation time: 72 h
Protocol: as §2

HCC1937 [18] = experiment: drug sensitivity score (DSS), CellTox Green (DSS (AUC-based score)); higher = stronger drug effect (viability inhibition or cytotoxicity); extreme values may be limits of the assay; details: incubation time: 72 h
Summary of the method: (§3)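 The drug sensitivity score was computed from the area under the fitted dose-response curve. Breast cancer cell lines in 20 µl suspension went into 384-well plates holding compound at 5 concentrations (10-fold steps over a 10,000-fold, compound-specific range) for 72 h of incubation. CellTox Green fluorescence (485/520 nm) was read before CellTiter-Glo luminescence, the latter after 10 min at room temperature, and each plate was normalised to 0.1 % DMSO and a positive kill control.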

Hs578T [19] = experiment: as above; details: incubation time: 72 h
Summary of the method: as §3

MDA-MB-231 [20] = experiment: normalised viability (% of control), CellTiter-Blue; higher = more viable cells (about 100 = DMSO control); details: 10 nM; incubation time: 72 h
Protocol: as §2

Hs578T [21] = experiment: as above; details: 10 nM; incubation time: 72 h
Protocol: as §2

CS(=O)(=O)CCNCc1ccc(-c2ccc3ncnc(Nc4ccc(OCc5cccc(F)c5)c(Cl)c4)c3c2)o1 [Lapatinib]
Details	normalised viability
BT-474, 100 nM	51.4% and 56.8%
BT-549 [2], 10 nM	74.6% and 99.6%
BT-549 [2], 1000 nM	86.5% and 103%
BT-549 [2], 10000 nM	14.1% and 20.7%
BT-549 [10], 100 nM	85.1% and 107%
CAL-51 [9], 3 nM	122% and 101%
CAL-51 [9], 30 nM	117% and 97.8%
CAL-51 [9], 100 nM	112% and 102%
CAL-51 [17], 10 nM	116% and 104%
CAL-85-1, 10 nM	94.6% and 101%
CAL-120, 100 nM	84.9% and 101%
CAL-148 [3], 3 nM	92.2% and 89.8%
CAL-148 [3], 30 nM	89.5% and 93.5%
CAL-148 [3], 100 nM	89.3% and 83.7%
CAL-148 [11], 10 nM	86% and 86.5%
DU-4475 [7], 3 nM	104% and 85.5%
DU-4475 [7], 30 nM	97.9% and 96.2%
DU-4475 [7], 100 nM	95.9% and 91.3%
DU-4475 [15], 10 nM	111% and 109%
HCC1143 [5], 10 nM	70.7% and 83.8%
HCC1143 [5], 1000 nM	76.2% and 89%
HCC1143 [5], 10000 nM	71% and 82.7%
HCC1143 [14], 100 nM	82.1% and 95.4%
HCC1599 [8], 10 nM	108% and 96.7%
HCC1599 [8], 10000 nM	63.5% and 83.8%
HCC1599 [16], 100 nM	93.9% and 94.5%
HCC1937 [13], 100 nM	97.1% and 106%
HDQ-P1, 10 nM	102% and 124%
Hs578T [6], 1000 nM	93.5% and 95.4%
Hs578T [6], 10000 nM	24.9% and 33.1%
MDA-MB-231 [1], 1000 nM	85.8% and 109%
MDA-MB-231 [1], 10000 nM	52.9% and 52.4%
MDA-MB-436, 100 nM	95.6% and 116%
MDA-MB-453, 10 nM	95.8% and 83.7%
MDA-MB-468 [4], 10 nM	100% and 105%
MDA-MB-468 [4], 1000 nM	64.2% and 68.2%
MDA-MB-468 [4], 10000 nM	11.8% and 16.3%
MDA-MB-468 [12], 100 nM	86.8% and 97.8%
MFM-223, 100 nM	94% and 92.9%
SK-BR-3, 100 nM	34.6% and 32.9%

Details	drug sensitivity score
HCC1937 [18]	2.25
Hs578T [19]	0

Cn1cnc2c(F)c(Nc3ccc(Br)cc3F)c(C(=O)NOCCO)cc21 [MEK-162]
Details	normalised viability [%]
BT-474, 10 nM	114
BT-549 [2], 1 nM	100
BT-549 [2], 100 nM	110
BT-549 [2], 1000 nM	108
BT-549 [10], 10 nM	107
CAL-51 [9], 0.3 nM	112
CAL-51 [9], 3 nM	104
CAL-51 [9], 10 nM	100
CAL-51 [17], 1 nM	111
CAL-85-1, 1 nM	98.1
CAL-120, 10 nM	92.2
CAL-148 [3], 0.3 nM	94
CAL-148 [3], 3 nM	91
CAL-148 [3], 10 nM	97.2
CAL-148 [11], 1 nM	91.5
DU-4475 [7], 0.3 nM	100
DU-4475 [7], 3 nM	94
DU-4475 [7], 10 nM	78.1
DU-4475 [15], 1 nM	97.6
HCC1143 [5], 1 nM	100
HCC1143 [5], 100 nM	70.7
HCC1143 [5], 1000 nM	61.8
HCC1143 [14], 10 nM	80.6
HCC1599 [8], 1 nM	90.5
HCC1599 [8], 100 nM	88.4
HCC1599 [8], 1000 nM	76.5
HCC1599 [16], 10 nM	111
HCC1937 [13], 10 nM	95.1
HDQ-P1, 1 nM	114
Hs578T [6], 1 nM	126
Hs578T [6], 100 nM	102
Hs578T [6], 1000 nM	97
MDA-MB-231 [1], 1 nM	104
MDA-MB-231 [1], 100 nM	80.3
MDA-MB-231 [1], 1000 nM	47
MDA-MB-436, 10 nM	126
MDA-MB-453, 1 nM	113
MDA-MB-468 [4], 1 nM	107
MDA-MB-468 [4], 100 nM	99.5
MDA-MB-468 [4], 1000 nM	75.2
MDA-MB-468 [12], 10 nM	98
MFM-223, 10 nM	87.9
SK-BR-3, 10 nM	83.4

Details	drug sensitivity score	normalised viability [%]
Hs578T [19]	0	–
Hs578T [21]	–	81.5
MDA-MB-231 [20]	–	92.5

From the supplement of paper PMC4862054
